Measurements: the NIST ThermoML archive (doi:10.1016/j.fluid.2015.06.016)
± gives the expanded uncertainty stated by the source.

Conditions: 303.15 K; 101.33 kPa; Liquid; Vibrating tube method

Compound | mass density
NCCO.O=CO [2-hydroxyethylammonium formate] | 1184.46 ± 1.2 kg/m3
CCCCCCCCCC [decane] | 722.439 ± 0.28 kg/m3
Cc1ccccc1 [toluene] | 857.606 ± 0.18 kg/m3

The next lines start with the values.

mass density | Compound
1257.13 ± 0.25 kg/m3 | OCC(O)CO [glycerol]
1265.75 ± 0.45 kg/m3 | O=S1(=O)CCCC1 [sulfolane]
